In ChEMBL document CHEMBL1201862, “PubChem BioAssay data set” (2004):
Values joined by “and” are separate entries in the source; they are usually repeats but may differ in a detail not shown here. Equal entries are not always repeated.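 96-well plates; 48 h exposure; 5 concentrations. Endpoints by linear interpolation between flanking doses. Not reached: highest tested concentration assigned. GI50 marks 50% less growth.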 Active and inactive are the calls of the source. No stated cut-off is given here; in the data, active = GI50 up to about 1.1 µM and inactive = higher.

How the values were obtained:
Experiment in all cases: NCI anticancer screen, dose series, 48 h
SNB-75 = tested on: SNB-75
SF-539 = tested on: SF-539
IGROV-1 = tested on: IGROV-1
T47D = tested on: T47D
HOP-62 = tested on: HOP-62
HCT-15 = tested on: HCT-15
TK-10 = tested on: TK-10
MDA-MB-435 = tested on: MDA-MB-435
MCF7 = tested on: MCF7
SK-MEL-2 = tested on: SK-MEL-2
HT-29 = tested on: HT-29
SK-MEL-28 = tested on: SK-MEL-28
SNB-19 = tested on: SNB-19
CCRF-CEM = tested on: CCRF-CEM
SW-620 = tested on: SW-620
SF-268 = tested on: SF-268
SR = tested on: SR
MDA-MB-231 = tested on: MDA-MB-231
COLO 205 = tested on: COLO 205
SK-OV-3 = tested on: SK-OV-3
MOLT-4 = tested on: MOLT-4
NCI-H23 = tested on: NCI-H23
U-251 = tested on: U-251
K562 = tested on: K562
OVCAR-4 = tested on: OVCAR-4
HOP-92 = tested on: HOP-92
OVCAR-5 = tested on: OVCAR-5
A498 = tested on: A498
M14 = tested on: M14
CAKI-1 = tested on: CAKI-1
EKVX = tested on: EKVX
HL-60 = tested on: HL-60
KM12 = tested on: KM12
RXF 393 = tested on: RXF 393
SF-295 = tested on: SF-295
DU-145 = tested on: DU-145
NCI/ADR-RES = tested on: NCI/ADR-RES
PC-3 = tested on: PC-3
OVCAR-3 = tested on: OVCAR-3
LOX IMVI = tested on: LOX IMVI
HCT-116 = tested on: HCT-116
SK-MEL-5 = tested on: SK-MEL-5
Hs-578T = tested on: Hs-578T
RPMI-8226 = tested on: RPMI-8226
SN12C = tested on: SN12C
OVCAR-8 = tested on: OVCAR-8
NCI-H226 = tested on: NCI-H226
786-0 = tested on: 786-0
Malme-3M = tested on: Malme-3M
MDA-N = tested on: MDA-N

Measured: GI50

Nc1nc(Nc2ccccc2)sc1C(=O)c1ccc(Cl)cc1
active: OVCAR-4 0.748 µM | CAKI-1 0.71 µM
> 100 µM: HCT-15
inactive: SNB-75 2.48 µM | SF-539 > 100 µM | IGROV-1 3.72 µM | T47D > 95.1 µM | HOP-62 2.88 µM | TK-10 5.12 µM | MDA-MB-435 1.3 µM | MCF7 4.39 µM | SK-MEL-2 15.1 µM | HT-29 > 100 µM | SK-MEL-28 > 100 µM | SNB-19 3.24 µM | CCRF-CEM > 100 µM | SW-620 4.13 µM | SF-268 1.35 µM | SR 1.36 µM | MDA-MB-231 4.3 µM | COLO 205 > 100 µM | SK-OV-3 2.46 µM | MOLT-4 8.99 µM | NCI-H23 8.17 µM | U-251 2.69 µM | K562 > 100 µM | HOP-92 3.39 µM | OVCAR-5 > 100 µM | A498 2.4 µM | M14 > 100 µM | EKVX > 58.9 µM | HL-60 > 100 µM | KM12 > 100 µM | RXF 393 2.69 µM | SF-295 3.7 µM

O=C(CN1CCOCC1)c1ccc2c(c1)oc(=O)n2CCN1CCOCC1
inactive: SNB-75 > 100 µM | SF-539 > 100 µM | IGROV-1 > 100 µM | HOP-62 > 100 µM | MDA-MB-435 > 100 µM | DU-145 > 100 µM | NCI/ADR-RES > 100 µM | MCF7 > 100 µM | SK-MEL-2 > 100 µM | HT-29 > 100 µM | SK-MEL-28 > 100 µM | SNB-19 > 100 µM | CCRF-CEM > 100 µM | SW-620 > 100 µM | SF-268 > 100 µM | SR > 100 µM | MDA-MB-231 > 100 µM | PC-3 > 100 µM | COLO 205 > 100 µM | SK-OV-3 > 100 µM | OVCAR-3 > 100 µM | MOLT-4 > 100 µM | U-251 > 100 µM | K562 > 100 µM | LOX IMVI > 100 µM | HCT-116 > 100 µM | OVCAR-5 > 100 µM | A498 > 100 µM | SK-MEL-5 > 100 µM | M14 > 100 µM | Hs-578T > 100 µM | RPMI-8226 > 100 µM | CAKI-1 > 100 µM | SN12C > 100 µM | OVCAR-8 > 100 µM | NCI-H226 > 100 µM | EKVX > 100 µM | 786-0 > 100 µM | HL-60 > 100 µM | KM12 > 100 µM | RXF 393 > 100 µM | Malme-3M > 100 µM | MDA-N > 100 µM | SF-295 > 100 µM

O=C(Nc1ccc([N+](=O)[O-])cc1)c1ccc([N+](=O)[O-])cc1
inactive: SNB-75 48.9 µM and 70.6 µM | SF-295 85.9 µM and 50.2 µM
